From BindingDB's records for doi:10.7270/Q2TH8K43 (Burnham Center For Chemical Genomics, 2010)

Molecular target: Nucleotide-binding oligomerization domain-containing protein 2 (Homo sapiens, UniProt Q9HC29)
Experiment: PubChem AID 2334

Nucleotide-binding oligomerization domain-containing protein 2, sequence (Q9HC29 whole entry, the tested form may be a part): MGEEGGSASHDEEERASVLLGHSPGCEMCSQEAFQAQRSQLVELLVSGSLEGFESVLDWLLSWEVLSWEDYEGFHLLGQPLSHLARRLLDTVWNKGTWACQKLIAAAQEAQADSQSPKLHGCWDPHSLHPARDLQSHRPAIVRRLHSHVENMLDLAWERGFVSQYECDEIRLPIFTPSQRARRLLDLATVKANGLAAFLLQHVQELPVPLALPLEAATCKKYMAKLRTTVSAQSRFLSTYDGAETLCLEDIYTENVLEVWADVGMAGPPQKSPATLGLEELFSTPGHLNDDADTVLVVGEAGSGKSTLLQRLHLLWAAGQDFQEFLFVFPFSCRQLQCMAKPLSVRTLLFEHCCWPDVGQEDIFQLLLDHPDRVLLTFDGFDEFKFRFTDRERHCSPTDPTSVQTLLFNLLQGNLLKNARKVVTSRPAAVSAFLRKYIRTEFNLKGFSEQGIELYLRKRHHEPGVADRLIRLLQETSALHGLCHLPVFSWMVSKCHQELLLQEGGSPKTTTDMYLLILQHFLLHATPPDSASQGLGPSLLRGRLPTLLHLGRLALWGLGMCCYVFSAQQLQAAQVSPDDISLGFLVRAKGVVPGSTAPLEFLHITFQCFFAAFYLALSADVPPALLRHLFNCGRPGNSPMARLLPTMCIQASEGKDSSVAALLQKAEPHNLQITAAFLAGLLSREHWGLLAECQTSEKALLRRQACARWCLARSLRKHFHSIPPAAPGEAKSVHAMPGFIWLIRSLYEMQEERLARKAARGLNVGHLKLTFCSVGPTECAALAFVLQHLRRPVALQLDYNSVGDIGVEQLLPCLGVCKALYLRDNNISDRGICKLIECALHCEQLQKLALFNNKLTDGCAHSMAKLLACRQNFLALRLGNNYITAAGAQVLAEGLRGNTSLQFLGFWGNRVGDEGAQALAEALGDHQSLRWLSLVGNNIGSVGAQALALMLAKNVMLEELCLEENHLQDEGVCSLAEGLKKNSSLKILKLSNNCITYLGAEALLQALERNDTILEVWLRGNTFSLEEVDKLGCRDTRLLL

## N#CC(C(=O)COC(=O)CSc1ccc(Cl)cc1)c1nc2ccccc2[nH]1 (stereo unspecified) [MLS-0208254.0001]
  IC50: > 20 µM

## Cc1ccc(O)c(/N=C/C2=CC(Cc3ccccc3)C=C([N+](=O)[O-])C2=O)c1 (stereo unspecified) [(6E)-6-[[(5-methyl-2-oxidanyl-phenyl)amino]methylidene]-2-nitro-4-(phenylmethyl)cyclohexa-2,4-dien-1-one]
  IC50: > 20 µM

## Cc1cc(SCC(=O)OCC(=O)C(C#N)c2nc3ccccc3[nH]2)c(C)cc1Br (stereo unspecified)
  IC50: > 20 µM

## Cc1ccc(C)c(SCC(=O)OCC(=O)C(C#N)c2nc3ccccc3[nH]2)c1 (stereo unspecified) [MLS000392255]
  IC50: > 20 µM

## Cc1cc(Br)ccc1SCC(=O)OCC(=O)C(C#N)c1nc2ccccc2[nH]1 (stereo unspecified) [2-[(4-bromo-2-methylphenyl)thio]acetic acid [3-cyano-3-(1,3-dihydrobenzimidazol-2-ylidene)-2-oxopropyl] ester]
  IC50: > 20 µM

## N#CC(C(=O)COC(=O)CSc1ccc2ccccc2c1)c1nc2ccccc2[nH]1 (stereo unspecified) [[3-cyano-3-(1,3-dihydrobenzimidazol-2-ylidene)-2-oxopropyl] 2-naphthalen-2-ylsulfanylacetate]
  IC50: > 20 µM
